From ChEMBL document CHEMBL5226281, “Synergistic effects of curcumin and its analogs with other bioactive compounds: A comprehensive review” (Eur J Med Chem, 2021)

Assays:
[1] = test system: Plasmodium falciparum; assay: Antimalarial activity against Plasmodium falciparum infected in mouse assessed as survival at 0.5 mg/kg, po measured after 40 days relative to control; assay type: functional; conditions: time 40 day
[2] = test system: HSC-2; assay: Synergistic cytotoxicity against human HSC-2 cells; assay type: functional, cell-based
[3] = test system: MCF7; assay: Synergistic antiproliferative activity against human MCF7 cells assessed as inhibition of cell growth; assay type: functional; parameters: scale not given: the % may be the effect or the level left
[4] = Antiproliferative activity against human WERI-Rb-1 cells assessed as inhibition of cell growth incubated for 48 hrs by MTT assay; assay type: functional, cell-based; conditions: WERI-Rb-1, 48 h
[5] = test system: HCT-116; assay: Synergistic antiproliferative activity against human HCT-116 cells assessed as inhibition of cell growth; assay type: functional, cell-based
[6] = test system: DLD-1; assay: Synergistic antiproliferative activity against human DLD-1 cells assessed as inhibition of cell growth; assay type: functional, cell-based
[7] = Antiproliferative activity against rat AY-27 cells assessed as inhibition of cell growth incubated for 3 hrs by MTT assay; assay type: functional; parameters: scale not given: the % may be the effect or the level left
[8] = test system: Y79; assay: Antiproliferative activity against human Y79 cells assessed as inhibition of cell growth incubated for 48 hrs by MTT assay; assay type: functional, cell-based; conditions: Y79, 48 h
[9] = Induction of apoptosis in rat AY-27 cells at 10 uM by Annexin V-PE and 7AAD staining based flow cytometry; assay type: functional
[10] = biological target: Mitogen-activated protein kinase 8 (Homo sapiens) (UniProt P45983); assay: Activation of JNK in human CMT12 cells; assay type: cell-based
Chain of Mitogen-activated protein kinase 8 (Homo sapiens) (P45983 whole entry): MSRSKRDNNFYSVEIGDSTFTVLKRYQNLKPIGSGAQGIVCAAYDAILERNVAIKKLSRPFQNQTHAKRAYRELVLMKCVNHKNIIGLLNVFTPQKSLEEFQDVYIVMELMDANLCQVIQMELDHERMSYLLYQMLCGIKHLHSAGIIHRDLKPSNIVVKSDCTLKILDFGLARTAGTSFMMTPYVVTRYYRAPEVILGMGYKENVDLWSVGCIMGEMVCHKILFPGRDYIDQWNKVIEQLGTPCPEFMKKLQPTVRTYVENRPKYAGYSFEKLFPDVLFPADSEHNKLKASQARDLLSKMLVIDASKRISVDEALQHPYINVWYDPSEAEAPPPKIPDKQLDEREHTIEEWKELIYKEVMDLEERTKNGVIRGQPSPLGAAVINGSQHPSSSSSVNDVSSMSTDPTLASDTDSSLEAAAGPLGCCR

C[C@@H]1CC[C@H]2[C@@H](C)C(=O)O[C@@H]3O[C@@]4(C)CC[C@@H]1[C@]32OO4 [ARTEMISININ]
Activity [1]: 100%

COc1cc(/C=C/C(=O)CC(=O)/C=C/c2ccc(O)c(OC)c2)ccc1O [CURCUMIN]
IC50 [2]: 3.1 µM | Activity [3]: 65.92% | IC50 [4]: 25 µM | IC50 [5]: 10 µM | IC50 [6]: 10 µM | Activity [7]: 85% | IC50 [8]: 30 µM | Activity [9]: 36% | Activity [10]: 30%

Oc1ccc(/C=C/c2cc(O)cc(O)c2)cc1 [RESVERATROL]
IC50 [2]: 3.1 µM
